Literature values as cited in patent publication US20050070607A1, “N-acetylcysteine compositions and methods for the treatment and prevention of cysteine/glutathione deficiency in diseases and conditions” (priority 2003, published 2005).

Key:
human atherosclerosis = conditions: brachial artery flow-mediated dilation; 4.5 g OTC po; n 48; 4 hours; Vita 1998[15]
HIV infected individuals = conditions: whole blood GSH; OTC 1500-3000 mg/day po; n 37; 4 weeks; Barditch-Crovo 1998[283]
acute lung injury = conditions: RBC GSH, days of acute lung injury, cardiac index; NAC 70 mg/kg q 8 hr IV; OTZ 63 mg/kg q 8 hr IV; n 48; 10 days; Bernard 1997[222]
Cystic Fibrosis (CF) = conditions: air trapping and FEV1; NAC or Ambroxol 200 mg 3 times daily; n 36; 12 weeks; Ratjen 1985[274]
chronic renal failure = conditions: regular users consuming >=1.4 g/day on average, absence of aspirin use; Fored[184]

## O=C1N[C@H](C(=O)O)CS1 [OTC, L-2-oxothiazolidine-4-carboxylic acid]
Human atherosclerosis
  Beneficial effects: Beneficial
HIV infected individuals
  Beneficial effects: Beneficial

## CSCC[C@H](N)C(=O)O [methionine]
cochlea; animal models [245-247]
  Hearing loss and cochlear damage from aminoglycoside antibiotics and cisplatin: greatly reduced
cochlea; animal models, systemic administration [246,248]
  permanent cochlear damage due to acute acoustic overexposure: almost completely prevented

## O=C1N[C@H](C(=O)O)CS1 [OTZ]
Acute lung injury
  Beneficial effects: Beneficial

## Nc1c(Br)cc(Br)cc1CN[C@H]1CC[C@H](O)CC1 [Ambroxol]
Cystic Fibrosis (CF)
  Beneficial effects: Beneficial

## CC(=O)Nc1ccc(O)cc1 [acetaminophen]
Chronic renal failure
  relative risk of chronic renal failure: 5.3
